Columns and labels:
[1] = target: T1, human Cav3.2 channels (Homo sapiens, UniProt O95180); assay: T-type calcium blocking action: intracellular calcium (Fluo-4 AM fluorescence) in HEK293 cells steadily expressing human Cav3.2 channels; type: cell-based; settings: HEK293 cells expressing human Cav3.2; KCl-stimulated calcium influx, Fluo-4 fluorescence; Tables 1 to 3
T1 construct: human Cav3.2 channel ORF (Open Reading Frame) gene; expressed in transfected cells; host or cells: HEK293 cells (ATCC No. CRL-1573), pcDNA3.1(+) plasmid
Procedure, shortened: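 Fluo-4 AM-loaded stable HEK293 cells were preincubated 15 min at RT with compound (0.1% DMSO final) in choline-based buffer (pH 7.3). Gramicidin was added, then KCl-induced calcium influx was read at 485/510 nm for 10 s. Percent block came from peak rise over baseline, and IC50 from log-concentration plots.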

[2] = target: T2, Cav3.1 channel (Homo sapiens, UniProt O43497); assay: Cav3.1 channel blocking action, as the Cav3.2 test but with the Cav3.1 channel ORF gene and 1.0 mM CaCl2 in the buffers; type: cell-based; settings: Cav3.1 channel ORF gene; CaCl2 1.0 mM in buffer A and buffer B
T2 construct: replaced with a Cav3.1 channel ORF gene; expressed in transfected cells
T2 sequence (O43497 whole entry): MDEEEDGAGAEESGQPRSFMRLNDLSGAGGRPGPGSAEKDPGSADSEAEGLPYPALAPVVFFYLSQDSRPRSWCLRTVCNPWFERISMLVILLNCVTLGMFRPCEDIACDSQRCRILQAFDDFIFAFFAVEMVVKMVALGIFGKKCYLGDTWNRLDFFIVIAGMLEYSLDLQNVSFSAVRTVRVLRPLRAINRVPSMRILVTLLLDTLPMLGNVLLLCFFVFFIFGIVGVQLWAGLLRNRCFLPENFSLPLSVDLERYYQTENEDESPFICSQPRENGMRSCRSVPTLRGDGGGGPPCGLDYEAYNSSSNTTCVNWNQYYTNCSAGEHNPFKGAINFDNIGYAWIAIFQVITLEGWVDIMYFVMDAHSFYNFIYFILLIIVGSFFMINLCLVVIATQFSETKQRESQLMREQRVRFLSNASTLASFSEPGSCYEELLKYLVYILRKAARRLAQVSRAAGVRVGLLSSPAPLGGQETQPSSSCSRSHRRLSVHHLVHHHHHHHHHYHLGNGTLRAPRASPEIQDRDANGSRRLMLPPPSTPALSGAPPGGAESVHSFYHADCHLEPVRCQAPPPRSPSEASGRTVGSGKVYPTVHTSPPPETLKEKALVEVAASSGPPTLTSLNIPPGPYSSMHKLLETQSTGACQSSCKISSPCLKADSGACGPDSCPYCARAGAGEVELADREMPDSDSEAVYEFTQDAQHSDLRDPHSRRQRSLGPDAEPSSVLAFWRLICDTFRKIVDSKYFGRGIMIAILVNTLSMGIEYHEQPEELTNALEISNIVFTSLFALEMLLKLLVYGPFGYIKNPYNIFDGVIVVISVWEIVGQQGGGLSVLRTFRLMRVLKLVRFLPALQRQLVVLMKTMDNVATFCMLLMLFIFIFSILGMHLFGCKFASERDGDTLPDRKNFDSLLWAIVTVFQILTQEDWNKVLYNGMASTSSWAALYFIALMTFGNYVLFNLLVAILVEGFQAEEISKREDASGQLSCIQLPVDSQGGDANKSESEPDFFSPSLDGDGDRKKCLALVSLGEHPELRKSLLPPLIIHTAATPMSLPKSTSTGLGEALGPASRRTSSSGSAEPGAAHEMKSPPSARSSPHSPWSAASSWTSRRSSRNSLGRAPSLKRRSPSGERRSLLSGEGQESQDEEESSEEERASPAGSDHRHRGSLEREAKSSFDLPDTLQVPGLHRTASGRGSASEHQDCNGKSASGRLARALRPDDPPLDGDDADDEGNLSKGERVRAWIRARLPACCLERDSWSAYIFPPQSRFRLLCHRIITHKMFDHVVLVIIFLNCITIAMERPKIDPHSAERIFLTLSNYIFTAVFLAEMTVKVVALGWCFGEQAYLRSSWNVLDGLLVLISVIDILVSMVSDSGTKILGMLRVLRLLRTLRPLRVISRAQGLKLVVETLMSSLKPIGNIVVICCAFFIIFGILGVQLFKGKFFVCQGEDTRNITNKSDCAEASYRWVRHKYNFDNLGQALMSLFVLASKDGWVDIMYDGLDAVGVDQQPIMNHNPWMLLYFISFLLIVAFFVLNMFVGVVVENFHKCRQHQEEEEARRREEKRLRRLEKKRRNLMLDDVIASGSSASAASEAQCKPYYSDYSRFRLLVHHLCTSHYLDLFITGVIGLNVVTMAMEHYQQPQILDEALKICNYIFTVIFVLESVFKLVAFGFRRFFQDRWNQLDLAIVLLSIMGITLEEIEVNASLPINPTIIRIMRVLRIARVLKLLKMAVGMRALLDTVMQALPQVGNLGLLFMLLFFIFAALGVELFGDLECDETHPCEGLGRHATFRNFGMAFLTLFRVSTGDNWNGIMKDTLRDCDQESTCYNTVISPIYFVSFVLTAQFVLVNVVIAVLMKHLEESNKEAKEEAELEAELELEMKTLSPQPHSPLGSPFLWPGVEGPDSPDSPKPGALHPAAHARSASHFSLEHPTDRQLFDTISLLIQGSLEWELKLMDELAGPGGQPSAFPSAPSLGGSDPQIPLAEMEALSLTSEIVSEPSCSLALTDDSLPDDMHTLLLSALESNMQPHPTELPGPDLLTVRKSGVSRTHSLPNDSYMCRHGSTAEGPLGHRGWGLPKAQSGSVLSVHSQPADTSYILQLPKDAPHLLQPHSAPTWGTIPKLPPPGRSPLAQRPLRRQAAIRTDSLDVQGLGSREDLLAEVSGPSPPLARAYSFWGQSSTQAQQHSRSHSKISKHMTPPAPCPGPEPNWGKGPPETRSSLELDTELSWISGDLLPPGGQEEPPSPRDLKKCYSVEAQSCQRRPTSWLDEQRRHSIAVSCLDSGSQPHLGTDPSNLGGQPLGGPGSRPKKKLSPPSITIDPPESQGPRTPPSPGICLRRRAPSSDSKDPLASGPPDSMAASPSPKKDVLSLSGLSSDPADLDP

T1 sequence (O95180 whole entry): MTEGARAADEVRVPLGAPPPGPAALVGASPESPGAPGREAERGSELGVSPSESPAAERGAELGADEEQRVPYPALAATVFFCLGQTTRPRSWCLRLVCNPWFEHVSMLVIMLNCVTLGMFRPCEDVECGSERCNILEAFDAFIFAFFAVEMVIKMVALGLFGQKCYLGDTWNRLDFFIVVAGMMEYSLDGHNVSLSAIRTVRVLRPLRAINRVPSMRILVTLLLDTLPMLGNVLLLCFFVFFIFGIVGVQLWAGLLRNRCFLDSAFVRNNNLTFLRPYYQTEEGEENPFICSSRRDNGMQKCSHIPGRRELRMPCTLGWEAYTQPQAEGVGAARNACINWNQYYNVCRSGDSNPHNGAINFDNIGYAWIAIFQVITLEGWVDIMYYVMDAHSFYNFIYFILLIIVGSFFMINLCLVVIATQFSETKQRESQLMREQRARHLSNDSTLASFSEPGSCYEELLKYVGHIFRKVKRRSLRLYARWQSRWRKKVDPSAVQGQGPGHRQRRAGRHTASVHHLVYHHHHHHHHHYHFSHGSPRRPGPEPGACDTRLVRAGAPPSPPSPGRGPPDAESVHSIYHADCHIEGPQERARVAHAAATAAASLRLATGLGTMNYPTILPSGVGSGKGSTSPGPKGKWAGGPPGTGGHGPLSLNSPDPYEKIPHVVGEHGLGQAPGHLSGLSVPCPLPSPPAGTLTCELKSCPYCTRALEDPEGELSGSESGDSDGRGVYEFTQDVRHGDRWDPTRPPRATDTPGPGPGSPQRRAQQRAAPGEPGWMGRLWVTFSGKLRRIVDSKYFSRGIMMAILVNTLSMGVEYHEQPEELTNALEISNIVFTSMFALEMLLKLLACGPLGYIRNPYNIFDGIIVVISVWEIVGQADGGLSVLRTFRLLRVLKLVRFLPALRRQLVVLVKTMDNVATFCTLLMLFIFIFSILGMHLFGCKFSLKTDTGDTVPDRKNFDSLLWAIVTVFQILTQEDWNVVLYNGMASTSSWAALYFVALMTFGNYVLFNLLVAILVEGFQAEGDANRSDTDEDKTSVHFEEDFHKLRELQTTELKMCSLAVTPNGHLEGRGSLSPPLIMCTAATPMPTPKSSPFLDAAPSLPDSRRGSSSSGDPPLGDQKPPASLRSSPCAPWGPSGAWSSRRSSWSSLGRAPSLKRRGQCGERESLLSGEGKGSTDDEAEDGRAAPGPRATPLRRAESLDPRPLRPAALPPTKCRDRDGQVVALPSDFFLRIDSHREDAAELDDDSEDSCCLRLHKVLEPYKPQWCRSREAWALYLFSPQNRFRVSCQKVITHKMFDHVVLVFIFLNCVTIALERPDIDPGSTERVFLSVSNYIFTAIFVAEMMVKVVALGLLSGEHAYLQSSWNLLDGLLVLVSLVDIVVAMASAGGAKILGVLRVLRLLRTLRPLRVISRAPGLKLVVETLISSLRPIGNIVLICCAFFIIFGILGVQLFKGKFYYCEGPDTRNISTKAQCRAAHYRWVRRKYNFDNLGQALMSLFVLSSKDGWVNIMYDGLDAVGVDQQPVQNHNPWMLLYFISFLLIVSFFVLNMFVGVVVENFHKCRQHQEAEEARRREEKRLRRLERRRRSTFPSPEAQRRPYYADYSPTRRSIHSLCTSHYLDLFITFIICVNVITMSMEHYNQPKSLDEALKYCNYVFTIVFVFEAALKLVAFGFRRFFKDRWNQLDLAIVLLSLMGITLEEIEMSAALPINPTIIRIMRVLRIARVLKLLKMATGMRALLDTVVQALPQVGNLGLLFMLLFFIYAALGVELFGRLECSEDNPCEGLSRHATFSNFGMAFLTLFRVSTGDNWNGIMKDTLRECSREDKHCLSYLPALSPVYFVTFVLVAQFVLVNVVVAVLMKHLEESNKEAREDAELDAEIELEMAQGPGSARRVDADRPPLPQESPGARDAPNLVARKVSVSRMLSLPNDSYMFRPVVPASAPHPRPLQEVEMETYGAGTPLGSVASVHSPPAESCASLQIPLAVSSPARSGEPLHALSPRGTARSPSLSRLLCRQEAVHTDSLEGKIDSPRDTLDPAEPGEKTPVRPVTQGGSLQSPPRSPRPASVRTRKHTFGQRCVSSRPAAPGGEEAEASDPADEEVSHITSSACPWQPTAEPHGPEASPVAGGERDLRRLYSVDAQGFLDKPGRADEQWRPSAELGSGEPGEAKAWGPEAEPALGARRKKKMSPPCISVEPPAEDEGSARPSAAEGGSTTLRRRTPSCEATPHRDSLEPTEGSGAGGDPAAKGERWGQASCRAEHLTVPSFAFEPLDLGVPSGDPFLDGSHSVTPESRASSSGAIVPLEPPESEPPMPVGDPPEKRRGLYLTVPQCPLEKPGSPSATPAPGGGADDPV

Row | SMILES | IC50 [1] | IC50 [2]
1 | Cn1ncc2cc(CC(=O)N[C@@H]3CCN(c4ccc(C(F)(F)F)nc4)C3)ccc21 [Example 144, (R)-2-(1-methyl-1H-indazol-5-yl)-N-(1-(6-(trifluoromethyl)pyridin-3-yl)pyrrolidin-3-yl)acetamide] | 22 nM | 470 nM
2 | CC(C(=O)N[C@@H]1CCN(c2ccc(C(F)(F)F)nc2)C1)c1ccc(C(F)(F)F)cc1 (stereo partly drawn) [Example 185, 2-(4-(Trifluoromethyl)phenyl)-N—((R)-1-(6-(trifluoromethyl)pyridin-3-yl)pyrrolidin-3-yl)propanamide] | 1400 nM | –
3 | O=C(Cc1ccc2cc[nH]c2c1)N[C@@H]1CCN(c2nc(C(F)(F)F)cs2)C1 [Example 187, (R)-2-(1H-indol-6-yl)-N-(1-(4-(trifluoromethyl)thiazol-2-yl)pyrrolidin-3-yl)acetamide] | 510 nM | –

From patent publication US20220226299A1 (NIPPON CHEMIPHAR CO., LTD., priority 2019, published 2022)
